Data from patent US20260258003A1, “SLACK-ACTIVATING COMPOUNDS AND THEIR MEDICAL USE” (Johann Wolfgang Goethe-Universität Frankfurt am Main, priority 2023, published 2026).

What was measured:
[1] = system: chloroquine-induced scratching behavior of mice; test: Chloroquine-induced acute itch (scratching) model, systemic treatment; format: in vivo; details: for chloroquine-induced scratching behavior: WT mice, 3, 10 or 30 mg/kg i.p. 15 min prior to s.c. chloroquine
Procedure: (§1) Further studies were conducted to assess the in vivo efficacy of Compound 6 and Compound 10 in mice. In detail, experiments were performed in 8 to 16 weeks old C57BL/6N mice (Charles River, Sulzfeld, Germany) and animals with a genetic deletion of Slack (Slack^−/− mice^27) of either sex. Animals were housed on a 12 h light/dark cycle with access to food and water ad libitum. All experiments adhered to the guidelines of the International Association for the Study of Pain and to the ARRIVE (Animal Research: Reporting on In Vivo Experiments) guidelines, and were approved by and conducted in accordance with the regulations of the local Animal Welfare authorities (Regierungspräsidium Darmstadt, Germany). All behavioral studies were conducted during the light cycle of the day at room temperature (20-24° C.) by an observer blinded for the treatment of the animals and/or their genotype.
Acute itch behavior of the mice was monitored using a histamine-based, chloroquine-based and SLIGRL-based acute itch behavior model. In these models, three to four days before the experiment day, the fur on the dorsolateral aspect of the neck was shaved under brief isoflurane anesthesia. On the testing day, mice were habituated for 30 min in separate plexiglass cylinders (30 cm diameter). Compounds were dissolved in 0.9% saline containing 10% 2-hydroxypropyl-β-cyclodextrine and i.p. administered in a volume of maximal 200 μL. 15 min thereafter, the pruritogens chloroquine (200 μg), SLIGRL (100 μg) or histamine (800 μg), all dissolved in 0.9% saline (20 μL), were injected subcutaneously into the nape of the neck. Numbers of scratching bouts directed to the nape of the neck were assessed over 30 min by videotaping.

[2] = system: voltage-gated (KV) potassium channel; test: SafetyScreen44 binding; design: species or system rat; details: 10 μM
Procedure: (§2) Compound enzyme inhibition effect was calculated as a % inhibition of control enzyme activity. […] Measurements were performed in duplicate.

[3] = target: T1, human ether-à-go-go (hERG) potassium channel (Homo sapiens, UniProt Q12809); test: SafetyScreen44 binding; details: 10 μM
T1 construct: Eurofins SafetyScreen44
Procedure: as §2

motor function of mice [4] = test: Vertical pole test (motor function); format: in vivo; details: for motor function in the vertical pole test: 3-30 mg i.p., after rotarod test
Procedure: as §1
(§3) Accelerating rotarod and vertical pole test were performed as follows: Mice were placed on a rotarod treadmill (Ugo Basile, Italy) with increasing speed (4-40 rpm over 300 s), and were trained for 4-5 consecutive days. Only mice reaching the 300 seconds without falling off were included in the experiment. On the testing day, compounds were i.p. administered in a vehicle composed of 0.9% saline (Sigma-Aldrich) containing 10% 2-hydroxypropyl-β-cyclodextrine (ITW Reagents) and after 15 min the latency to fall off the accelerating rotarod was measured. Immediately thereafter, mice were placed head-upward on the top of a vertical pole with a rough surface (diameter 1 cm, height 40 cm) and the time until animals reached the ground was recorded (cut-off time 20 s). Means out of three trials for each time point were calculated for further analysis.

motor function of mice [5] = test: Accelerating rotarod test (motor function); format: in vivo; design: motor function in the accelerating rotarod test: dose or concentration left out as unconfirmed; details: for motor function in the accelerating rotarod test: 15 min after administration
Procedure: as §1, §3

44 targets = test: SafetyScreen44 panel (Eurofins), whole panel; format: binding, mostly human; details: 10 μM, out of 44 targets
Procedure: as §2

[6] = systemic administration of a low dose, preliminary experiments, data not shown

T1 sequence (Q12809 whole entry): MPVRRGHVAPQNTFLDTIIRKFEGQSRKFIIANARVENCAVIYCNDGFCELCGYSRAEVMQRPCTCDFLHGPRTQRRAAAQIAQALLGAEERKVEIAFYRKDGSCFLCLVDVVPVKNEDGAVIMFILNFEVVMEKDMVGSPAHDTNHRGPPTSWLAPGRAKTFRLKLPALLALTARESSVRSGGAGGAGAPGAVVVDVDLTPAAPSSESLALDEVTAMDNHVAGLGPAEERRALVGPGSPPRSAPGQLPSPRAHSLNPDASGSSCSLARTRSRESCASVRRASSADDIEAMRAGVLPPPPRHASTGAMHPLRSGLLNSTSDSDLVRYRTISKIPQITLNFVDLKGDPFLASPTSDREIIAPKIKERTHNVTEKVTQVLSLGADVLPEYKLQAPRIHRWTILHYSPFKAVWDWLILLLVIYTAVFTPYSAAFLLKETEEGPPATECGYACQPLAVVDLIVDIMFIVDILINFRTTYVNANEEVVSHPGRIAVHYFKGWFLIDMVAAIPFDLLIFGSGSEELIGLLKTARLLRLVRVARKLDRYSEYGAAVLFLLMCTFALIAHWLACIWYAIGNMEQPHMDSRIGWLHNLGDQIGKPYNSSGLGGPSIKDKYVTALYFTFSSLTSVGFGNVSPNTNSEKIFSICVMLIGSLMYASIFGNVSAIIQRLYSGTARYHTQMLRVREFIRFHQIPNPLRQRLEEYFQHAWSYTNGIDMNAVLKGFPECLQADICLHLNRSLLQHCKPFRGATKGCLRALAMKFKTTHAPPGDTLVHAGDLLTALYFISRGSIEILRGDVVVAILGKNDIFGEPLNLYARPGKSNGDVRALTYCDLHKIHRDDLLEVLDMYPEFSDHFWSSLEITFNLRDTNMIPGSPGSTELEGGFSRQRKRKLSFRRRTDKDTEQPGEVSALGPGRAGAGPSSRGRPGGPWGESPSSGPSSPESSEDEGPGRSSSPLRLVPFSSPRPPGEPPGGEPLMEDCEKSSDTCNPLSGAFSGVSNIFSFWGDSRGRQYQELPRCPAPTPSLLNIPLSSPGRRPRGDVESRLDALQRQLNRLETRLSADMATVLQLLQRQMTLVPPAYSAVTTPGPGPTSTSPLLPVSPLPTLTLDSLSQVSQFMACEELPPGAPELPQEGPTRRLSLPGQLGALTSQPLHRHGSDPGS

| Compound | chloroquine-induced scratching in Slack−/− mice ([1]; Slack−/− mice, 10 mg/kg) | chloroquine-induced scratching behavior [1] | antipruritic effect after pretreatment with Slack inhibitor Compound 31 ([1]; WT mice, Compound 31 30 mg/kg i.p. 5 min prior to Compound 6 30 mg/kg i.p.) | binding to voltage-gated (KV) potassium channel in the off-target screen [2] | binding to hERG potassium channel in the off-target screen [3] | motor function in the vertical pole test (motor function of mice [4]) | motor function in the accelerating rotarod test (motor function of mice [5]) | number of targets with substantial binding inhibition (higher than 50%) (44 targets) | chloroquine-induced scratching behavior of wildtype mice [1, 6] | scratching behavior in Slack knockout mice [1, 6] | ability to perform in the vertical pole test (motor function of mice [4]; dose ≥0.39 mg/kg i.p.) | ability to perform in the accelerating rotarod test (motor function of mice [5]; dose ≥0.39 mg/kg i.p.) |
| --- | --- | --- | --- | --- | --- | --- | --- | --- | --- | --- | --- | --- |
| O=C(O)COCCN1CCN(C2=Nc3ccccc3Oc3ccc(Cl)cc32)CC1 [Compound 6, 2-(2-(4-(2-Chlorodibenzo[b,f][1,4]oxazepin-11-yl)piperazin-1-yl)ethoxy) acetic acid] | did not significantly alter | ameliorate the scratching behavior in a dose-dependent manner | partly antagonized | did not measurably bind | did not measurably bind | did neither impair the motor function | did neither impair the motor function | 8 | – | – | – | – |
| O=c1nc(CN2CCN(C3=Nc4ccccc4Oc4ccc(Cl)cc43)CC2)[nH][nH]1 [Compound 10, 5-((4-(2-Chlorodibenzo[b,f][1,4]oxazepin-11-yl)piperazin-1-yl)methyl)-1,2-dihydro-3H-1,2,4-triazol-3-one] | – | ameliorate the scratching behavior in a dose-dependent manner | – | did not measurably bind | did not measurably bind | did neither impair the motor function | did neither impair the motor function | 5 | – | – | – | – |
| CN1CCN(C2=Nc3ccccc3Oc3ccc(Cl)cc32)CC1 [Loxapine, 2-chloro-11-(4-methylpiperazin-1-yl)dibenzo[b,f][1,4]oxazepine, reference compound] | – | – | – | did not measurably bind | did not measurably bind | – | – | 17 | significantly alleviated | did not affect | significantly reduced the ability of the mice to perform | significantly reduced the ability of the mice to perform |
